Patent publication US6544985B2, “Dihydro-benzo [b][1,4]diazepin-2-one derivatives” (Hoffman-La Roche Inc., priority 2001, dated 2003)

melting point	SMILES
176 to 178 °C	CN(C)c1cc2c(cc1Cl)NC(=O)CC(c1cccc(-c3csc(CO)n3)c1)=N2 [Example 193, 8-Chloro-7-dimethylamino-4-[3-(2-hydroxymethyl-thiazol-4-yl)-phenyl]-1,3-dihydro-benzo[b][1,4]diazepin-2-one]
247 to 248 °C	CN(C)c1cc2c(cc1Cl)NC(=O)CC(c1cccc(-c3csc(N)n3)c1)=N2 [Example 194, 4-[3-(2-Amino-thiazol-4-yl)-phenyl]-8-chloro-7-dimethylamino-1,3-dihydro-benzo[b][1,4]diazepin-2-one]
221 °C (dec.)	CN(C)c1cc2c(cc1Cl)NC(=O)CC(c1cccc(-c3csc(NC(=N)N)n3)c1)=N2 [Example 196, N-{4-[3-(7-Chloro-8-dimethylamino-4-oxo-4,5-dihydro-3H-benzo[b][1,4]diazepin-2-yl)-phenyl]-thiazol-2-yl}-guanidine]
231 to 234 °C	CN(C)c1cc2c(cc1Cl)NC(=O)CC(c1cccc(-c3csc(Nc4ccncc4)n3)c1)=N2 [Example 197, 8-Chloro-7-dimethylamino-4-{3-[2-(pyridin-4-ylamino)-thiazol-4-yl]-phenyl}-1,3-dihydro-benzo[b][1,4]diazepin-2-one]
163 to 164 °C	CCCN(C)c1cc2c(cc1Cl)NC(=O)CC(c1cccc(-c3coc(C)n3)c1)=N2 [Example 198, 8-Chloro-4-[3-(2-methyl-oxazol-4-yl)-phenyl]-7-(methyl-propyl-amino)-1,3-dihydro-benzo[b][1,4]diazepin-2-one]
222 to 224 °C	CCCN(C)c1cc2c(cc1C)NC(=O)CC(c1cccc(-c3nc(CO)cs3)c1)=N2 [Example 199, 4-[3-(4-Hydroxymethyl-thiazol-2-yl)-phenyl]-8-methyl-7-(methyl-propyl-amino)-1,3-dihydro-benzo[b][1,4]diazepin-2-one]
200 to 202 °C	CCCN(C)c1cc2c(cc1C)NC(=O)CC(c1cccc(-c3nc(CO)co3)c1)=N2 [Example 200, 4-[3-(4-Hydroxymethyl-oxazol-2-yl)-phenyl]-8-methyl-7-(methyl-propyl-amino)-1,3-dihydro-benzo[b][1,4]diazepin-2-one]
198 to 199 °C	CN(C)c1cc2c(cc1C(F)(F)F)NC(=O)CC(c1cccc(-c3nc(CO)cs3)c1)=N2 [Example 201, 7-Dimethylamino-4-[3-(4-hydroxymethyl-thiazol-2-yl)-phenyl]-8-trifluoromethyl-1,3-dihydro-benzo[b][1,4]diazepin-2-one]
197 to 198 °C	CN(C)c1cc2c(cc1C(F)(F)F)NC(=O)CC(c1cccc(-c3nc(CO)co3)c1)=N2 [Example 202, 7-Dimethylamino-4-[3-(4-hydroxymethyl-oxazol-2-yl)-phenyl]-8-trifluoromethyl-1,3-dihydro-benzo[b][1,4]diazepin-2-one]
177 to 180 °C	CCCN(C)c1cc2c(cc1C(F)(F)F)NC(=O)CC(c1cccc(-c3nc(CO)cs3)c1)=N2 [Example 203, 4-[3-(4-Hydroxymethyl-thiazol-2-yl)-phenyl]-7-(methyl-propyl-amino)-8-trifluoromethyl-1,3-dihydro-benzo[b][1,4]diazepin-2-one]
234 to 237 °C	CN(C)c1cc2c(cc1C(F)(F)F)NC(=O)CC(c1cccc(-c3nnc(CCO)s3)c1)=N2 [Example 205, 7-Dimethylamino-4-{3-[5-(2-hydroxy-ethyl)-[1,3,4]thiadiazol-2-yl]-phenyl}-8-trifluoromethyl-1,3-dihydro-benzo[b][1,4]diazepin-2-one]
237 °C (dec.)	CN(C)c1cc2c(cc1C(F)(F)F)NC(=O)CC(c1cccc(-c3nnc(CCO)o3)c1)=N2 [Example 207, 7-Dimethylamino-4-{3-[5-(2-hydroxy-ethyl)-[1,3,4]oxadiazol-2-yl]-phenyl}-8-trifluoromethyl-1,3-dihydro-benzo[b][1,4]diazepin-2-one]
